In ChEMBL document CHEMBL4665621, “The discovery of VU0652957 (VU2957, Valiglurax): SAR and DMPK challenges en route to an mGlu PAM development candidate” (Bioorg Med Chem Lett, 2019):

How the values were obtained:
[1] = target: T1, Metabotropic glutamate receptor 4 (Homo sapiens, UniProt Q14833); test: Positive allosteric modulator activity at human mGlu4 receptor/Gqi5 in presence of EC20 glutamate by calcium mobilization assay; type: functional
[2] = target: T1, Metabotropic glutamate receptor 4; test: Positive allosteric modulator activity at human mGlu4 receptor/Gqi5 assessed as maximum activity at 30 uM by calcium mobilization assay relative to glutamic acid; type: functional; details: filed as positive allosteric modulator
[3] = Brain to plasma partition coefficient, Kp of the compound in Sprague-Dawley rat at 0.20 to 0.25 mg/kg, iv cassette dose measured at 0.25 hrs; type: ADME, organism-based; details: dose 0.20-0.25 mg/kg
Rattus norvegicus [4] = test: Reversal of haloperidol-induced catalepsy in rat assessed as reduction in catalepsy at 3 mg/kg, po dosed along with 1.5 mg/kg haloperidol relative to untreated control; type: functional; parameters: scale not given: the % may be the effect or the level left
[5] = Half life in rat; type: ADME; details: in vivo
Cytochrome P450 2D6 = Cytochrome P450 2D6 (Homo sapiens, UniProt P10635); test: Inhibition of CYP2D6 (unknown origin); type: ADME
Cytochrome P450 2D6, sequence (P10635 whole entry): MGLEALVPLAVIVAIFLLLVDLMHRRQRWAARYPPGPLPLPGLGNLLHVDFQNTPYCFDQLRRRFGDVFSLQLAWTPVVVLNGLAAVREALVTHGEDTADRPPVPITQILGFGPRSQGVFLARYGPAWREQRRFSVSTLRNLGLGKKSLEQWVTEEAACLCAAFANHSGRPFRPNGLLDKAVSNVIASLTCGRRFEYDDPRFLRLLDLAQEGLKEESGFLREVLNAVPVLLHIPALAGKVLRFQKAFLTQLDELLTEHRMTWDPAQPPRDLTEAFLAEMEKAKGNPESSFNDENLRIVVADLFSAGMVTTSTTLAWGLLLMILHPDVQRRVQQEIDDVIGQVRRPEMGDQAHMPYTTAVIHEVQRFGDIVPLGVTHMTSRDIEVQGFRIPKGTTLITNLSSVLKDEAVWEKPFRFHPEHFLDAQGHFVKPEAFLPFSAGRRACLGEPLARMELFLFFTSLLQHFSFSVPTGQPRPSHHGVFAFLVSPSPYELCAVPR

Cytochrome P450 2C9 = Cytochrome P450 2C9 (Homo sapiens, UniProt P11712); test: Inhibition of CYP2C9 (unknown origin); type: ADME
Cytochrome P450 2C9, sequence (P11712 whole entry): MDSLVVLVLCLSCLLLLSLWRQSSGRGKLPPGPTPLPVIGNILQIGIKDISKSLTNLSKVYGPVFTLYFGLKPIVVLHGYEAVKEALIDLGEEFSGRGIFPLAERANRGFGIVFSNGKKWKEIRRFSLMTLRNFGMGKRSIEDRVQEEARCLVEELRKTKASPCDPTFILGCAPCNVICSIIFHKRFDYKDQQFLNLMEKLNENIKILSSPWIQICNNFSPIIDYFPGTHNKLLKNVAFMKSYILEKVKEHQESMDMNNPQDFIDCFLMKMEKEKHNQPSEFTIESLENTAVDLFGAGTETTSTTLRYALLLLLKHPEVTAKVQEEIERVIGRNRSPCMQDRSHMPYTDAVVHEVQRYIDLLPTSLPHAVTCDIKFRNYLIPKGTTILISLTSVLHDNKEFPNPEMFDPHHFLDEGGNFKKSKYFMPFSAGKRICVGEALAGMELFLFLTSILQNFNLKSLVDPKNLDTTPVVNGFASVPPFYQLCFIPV

[6] = Protein binding in rat plasma assessed as unbound fraction; type: ADME, cell-free
Cytochrome P450 1A2 = target: T2, Cytochrome P450 1A2 (Homo sapiens, UniProt P05177); test: Inhibition of CYP1A2 (unknown origin); type: ADME
T2 sequence (P05177 whole entry): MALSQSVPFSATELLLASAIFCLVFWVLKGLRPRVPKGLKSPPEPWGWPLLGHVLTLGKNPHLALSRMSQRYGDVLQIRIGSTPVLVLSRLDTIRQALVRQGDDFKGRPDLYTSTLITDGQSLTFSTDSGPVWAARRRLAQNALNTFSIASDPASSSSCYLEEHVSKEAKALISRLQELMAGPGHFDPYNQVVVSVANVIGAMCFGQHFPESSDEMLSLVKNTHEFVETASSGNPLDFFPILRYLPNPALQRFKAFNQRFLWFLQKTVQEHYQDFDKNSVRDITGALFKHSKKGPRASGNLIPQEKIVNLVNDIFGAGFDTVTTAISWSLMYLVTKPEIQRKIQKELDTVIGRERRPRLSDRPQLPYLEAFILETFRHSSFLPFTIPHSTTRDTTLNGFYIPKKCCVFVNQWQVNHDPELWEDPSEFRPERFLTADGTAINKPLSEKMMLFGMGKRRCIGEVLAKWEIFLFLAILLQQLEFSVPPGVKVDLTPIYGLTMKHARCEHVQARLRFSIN

[7] = Protein binding in human plasma assessed as unbound fraction; type: ADME, cell-free
Cytochrome P450 3A4 = Cytochrome P450 3A4 (Homo sapiens, UniProt P08684); test: Inhibition of CYP3A4 (unknown origin); type: ADME
Cytochrome P450 3A4, sequence (P08684 whole entry): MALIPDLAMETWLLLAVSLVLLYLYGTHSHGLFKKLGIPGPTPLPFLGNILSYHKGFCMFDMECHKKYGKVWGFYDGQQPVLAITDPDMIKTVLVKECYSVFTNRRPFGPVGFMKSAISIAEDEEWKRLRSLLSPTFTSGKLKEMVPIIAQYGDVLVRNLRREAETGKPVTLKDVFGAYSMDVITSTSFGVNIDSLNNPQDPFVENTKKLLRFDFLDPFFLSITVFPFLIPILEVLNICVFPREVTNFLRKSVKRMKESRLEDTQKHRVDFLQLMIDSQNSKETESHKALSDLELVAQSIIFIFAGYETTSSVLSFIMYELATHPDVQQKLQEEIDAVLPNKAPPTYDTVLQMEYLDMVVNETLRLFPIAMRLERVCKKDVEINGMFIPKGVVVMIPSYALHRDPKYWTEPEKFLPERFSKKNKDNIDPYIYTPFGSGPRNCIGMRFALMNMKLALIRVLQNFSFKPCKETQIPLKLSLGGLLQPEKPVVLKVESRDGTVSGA

[8] = Volume of distribution at steady state in rat; type: ADME; details: in vivo
[9] = Fraction unbound in rat brain homogenate; type: ADME, tissue-based
[10] = target: Metabotropic glutamate receptor 4 (Rattus norvegicus) (UniProt P31423); test: Positive allosteric modulator activity at rat mGlu4 receptor/Gqi5 assessed as maximum activity by calcium mobilization assay relative to glutamic acid; type: functional; details: filed as positive allosteric modulator
Metabotropic glutamate receptor 4 (Rattus norvegicus), sequence (P31423 whole entry): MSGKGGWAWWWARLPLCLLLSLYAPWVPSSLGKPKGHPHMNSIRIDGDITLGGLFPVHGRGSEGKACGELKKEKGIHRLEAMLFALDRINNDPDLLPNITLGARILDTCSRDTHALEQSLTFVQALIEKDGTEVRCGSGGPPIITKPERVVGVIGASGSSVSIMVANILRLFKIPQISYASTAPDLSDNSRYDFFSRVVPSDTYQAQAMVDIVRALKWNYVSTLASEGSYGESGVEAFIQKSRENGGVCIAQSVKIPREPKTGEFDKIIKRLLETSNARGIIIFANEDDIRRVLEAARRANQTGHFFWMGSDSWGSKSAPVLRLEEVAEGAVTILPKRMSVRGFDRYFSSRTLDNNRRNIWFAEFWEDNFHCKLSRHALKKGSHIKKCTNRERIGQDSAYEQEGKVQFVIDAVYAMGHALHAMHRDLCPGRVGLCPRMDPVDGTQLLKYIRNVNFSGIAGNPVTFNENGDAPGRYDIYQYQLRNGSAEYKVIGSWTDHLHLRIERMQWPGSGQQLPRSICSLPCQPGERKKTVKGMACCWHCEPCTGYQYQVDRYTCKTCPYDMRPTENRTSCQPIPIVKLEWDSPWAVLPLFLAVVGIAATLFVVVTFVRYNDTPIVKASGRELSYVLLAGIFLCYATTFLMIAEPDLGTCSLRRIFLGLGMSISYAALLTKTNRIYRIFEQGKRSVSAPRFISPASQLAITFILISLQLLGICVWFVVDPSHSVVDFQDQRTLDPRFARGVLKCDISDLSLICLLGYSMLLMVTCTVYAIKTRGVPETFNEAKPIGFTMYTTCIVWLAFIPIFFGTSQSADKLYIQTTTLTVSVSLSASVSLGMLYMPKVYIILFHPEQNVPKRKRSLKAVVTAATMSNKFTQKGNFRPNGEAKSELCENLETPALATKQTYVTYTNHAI

Rattus norvegicus [11] = test: Reversal of haloperidol-induced catalepsy in po dosed rat assessed as minimum effective dose; type: functional; details: read-out: MED
Cytochrome P450 2C19 = Cytochrome P450 2C19 (Homo sapiens, UniProt P33261); test: Inhibition of CYP2C19 (unknown origin); type: ADME
Cytochrome P450 2C19, sequence (P33261 whole entry): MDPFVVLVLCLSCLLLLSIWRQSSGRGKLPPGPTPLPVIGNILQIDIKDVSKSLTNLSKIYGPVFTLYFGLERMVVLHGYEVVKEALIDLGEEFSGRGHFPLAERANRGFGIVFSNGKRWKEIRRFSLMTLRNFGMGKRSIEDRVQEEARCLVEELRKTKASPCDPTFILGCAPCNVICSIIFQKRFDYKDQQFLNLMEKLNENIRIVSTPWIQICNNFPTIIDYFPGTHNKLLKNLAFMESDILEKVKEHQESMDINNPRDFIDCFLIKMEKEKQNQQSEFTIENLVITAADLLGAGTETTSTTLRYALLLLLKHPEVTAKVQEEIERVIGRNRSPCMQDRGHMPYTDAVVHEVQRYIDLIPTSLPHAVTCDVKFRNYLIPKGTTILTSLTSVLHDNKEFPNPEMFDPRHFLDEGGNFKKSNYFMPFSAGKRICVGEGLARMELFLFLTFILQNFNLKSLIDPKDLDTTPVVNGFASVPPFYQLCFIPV

[12] = target: Metabotropic glutamate receptor 4 (Rattus norvegicus, UniProt P31423); test: Positive allosteric modulator activity at rat mGlu4 receptor/Gqi5 in presence of EC20 glutamate by calcium mobilization assay; type: functional
Metabotropic glutamate receptor 4 (Rattus norvegicus, UniProt P31423), sequence (P31423 whole entry): as the sequence (P31423 whole entry) above

[13] = Hepatic clearance in human; type: ADME

T1 sequence (Q14833 whole entry): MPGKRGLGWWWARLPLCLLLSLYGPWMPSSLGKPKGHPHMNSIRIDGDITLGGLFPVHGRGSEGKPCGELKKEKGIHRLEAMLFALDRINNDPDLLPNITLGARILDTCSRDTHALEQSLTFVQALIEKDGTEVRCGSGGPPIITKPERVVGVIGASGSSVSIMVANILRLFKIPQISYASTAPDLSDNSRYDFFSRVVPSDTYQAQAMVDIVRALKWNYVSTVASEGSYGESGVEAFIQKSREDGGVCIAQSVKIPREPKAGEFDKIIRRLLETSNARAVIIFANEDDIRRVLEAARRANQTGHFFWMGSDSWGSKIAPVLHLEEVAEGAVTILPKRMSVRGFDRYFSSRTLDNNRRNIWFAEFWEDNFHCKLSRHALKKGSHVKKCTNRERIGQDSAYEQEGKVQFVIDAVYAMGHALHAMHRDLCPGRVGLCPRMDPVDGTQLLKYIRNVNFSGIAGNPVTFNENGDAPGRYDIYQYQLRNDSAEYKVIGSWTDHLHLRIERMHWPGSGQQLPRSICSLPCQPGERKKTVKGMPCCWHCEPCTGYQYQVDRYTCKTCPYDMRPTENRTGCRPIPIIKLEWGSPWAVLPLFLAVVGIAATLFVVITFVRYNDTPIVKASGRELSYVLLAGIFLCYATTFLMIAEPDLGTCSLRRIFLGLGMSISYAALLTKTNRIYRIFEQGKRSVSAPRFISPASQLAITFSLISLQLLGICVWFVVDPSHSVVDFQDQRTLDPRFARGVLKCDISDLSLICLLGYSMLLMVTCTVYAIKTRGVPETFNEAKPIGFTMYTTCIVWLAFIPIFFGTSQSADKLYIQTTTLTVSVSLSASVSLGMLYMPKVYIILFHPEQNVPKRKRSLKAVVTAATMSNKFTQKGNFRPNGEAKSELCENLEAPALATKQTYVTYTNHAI

Compound | EC50 [1] | Activity [2] | also measured
O=c1c2ccc(Nc3n[nH]c4cccnc34)cc2ccn1C1CCCC1 | 1.73 µM | 22% | –
FC(F)(F)c1nccc2cc(Nc3n[nH]c4cccnc34)ccc12 | 0.018 µM | 77% | Kp at 0.25 h [3]: 4.3; Activity (Rattus norvegicus [4]): 24%; half-life [5]: < 1 h
c1cnc2c(Nc3ccc4c(NC5CCC5)nccc4c3)n[nH]c2c1 | 0.869 µM | 71% | –
Cn1nc(C(F)(F)F)cc1-c1nccc2cc(Nc3n[nH]c4cccnc34)ccc12 | 0.132 µM | 84% | –
Cc1cc(C)n(-c2nccc3cc(Nc4n[nH]c5cccnc45)ccc23)n1 | 0.726 µM | 70% | –
CCN(CC)c1nccc2cc(Nc3n[nH]c4cccnc34)ccc12 | 0.164 µM | 95% | –
COCCNc1nccc2cc(Nc3n[nH]c4cccnc34)ccc12 | 0.121 µM | 89% | –
c1cnc2cc(Nc3n[nH]c4cccnc34)ccc2c1 | > 10 µM | – | –
FC(F)c1nccc2cc(Nc3n[nH]c4cccnc34)ccc12 | 0.008 µM | 67% | IC50 (Cytochrome P450 2D6): > 30 µM; IC50 (Cytochrome P450 2C9): 30 µM; Kp at 0.25 h [3]: 2.2; Fu [6]: 0.032 fraction; IC50 (Cytochrome P450 1A2): 0.3 µM; Activity (Rattus norvegicus [4]): 45%; Fu [7]: 0.03 fraction; IC50 (Cytochrome P450 3A4): > 30 µM
c1cnc2c(Nc3ccc4cnccc4n3)n[nH]c2c1 | > 10 µM | – | –
CCc1nccc2cc(Nc3n[nH]c4cccnc34)ccc12 | 0.045 µM | 64% | IC50 (Cytochrome P450 1A2): < 1 µM
c1cnc2c(Nc3ccc4cnccc4c3)n[nH]c2c1 | 0.076 µM | 114% | Vdss [8]: 4.88 L/kg; Fu [9]: 0.029%; IC50 (Cytochrome P450 2D6): 3.98 µM; IC50 (Cytochrome P450 2C9): 1.35 µM; fraction unbound [6]: 0.046; IC50 (Cytochrome P450 1A2): 0.15 µM; t1/2 [5]: 10.2 h; Fu [7]: 0.092 fraction; IC50 (Cytochrome P450 3A4): 0.44 µM
FC(F)(F)c1nccc2cc(Nc3n[nH]c4nccnc34)ccc12 | 0.051 µM | 83% | Activity (Rattus norvegicus [4]): 24%; half-life [5]: < 1 h
c1cnc2c(Nc3ccc4c(C5CC5)nccc4c3)n[nH]c2c1 | 0.071 µM | 86% | IC50 (Cytochrome P450 1A2): < 1 µM
FC(F)(F)c1nccc2cc(Nc3n[nH]c4ncccc34)ccc12 | 0.065 µM | 93% | Emax [10]: 123%; Kp at 0.25 h [3]: 1.5; minimal effective dose (Rattus norvegicus [11]): 1 mg/kg; Activity (Rattus norvegicus [4]): 50%; IC50 (Cytochrome P450 2C19): 12.5 µM; EC50 [12]: 0.197 µM
O=c1[nH]ccc2cc(Nc3n[nH]c4cccnc34)ccc12 | 0.264 µM | 77% | IC50 (Cytochrome P450 2C9): > 30 µM; IC50 (Cytochrome P450 1A2): 3.3 µM; IC50 (Cytochrome P450 3A4): > 30 µM
c1cnc2ccc(Nc3n[nH]c4cccnc34)cc2c1 | 0.732 µM | 42% | –

Compound | EC50 [1] | Activity [2] | also measured
CC(c1nccc2cc(Nc3n[nH]c4cccnc34)ccc12)C(F)(F)F (stereo not given) | 0.036 µM | 100% | Kp at 0.25 h [3]: 2.2
c1cnc2c(Nc3ccc4ncncc4c3)n[nH]c2c1 | > 10 µM | – | –
c1cnc2c(Nc3ccc4c(-n5cccn5)nccc4c3)n[nH]c2c1 | 0.063 µM | 85% | Fu [9]: 0.029%; IC50 (Cytochrome P450 2D6): 7.2 µM; CLH [13]: 2.14 L/h/kg; IC50 (Cytochrome P450 2C9): 7.3 µM; Kp at 0.25 h [3]: 1.37; Fu [6]: 0.046 fraction; IC50 (Cytochrome P450 1A2): 1.5 µM; Fu [7]: 0.09 fraction; IC50 (Cytochrome P450 3A4): 13 µM
CC(C)Cn1ccc2cc(Nc3n[nH]c4cccnc34)ccc2c1=O | 0.685 µM | 24% | –
CN1CCN(c2nccc3cc(Nc4n[nH]c5cccnc45)ccc23)CC1 | 1.29 µM | 72% | –
c1ccc(CNc2nccc3cc(Nc4n[nH]c5cccnc45)ccc23)cc1 | 1.36 µM | 58% | –
FC(F)(F)C1CCCCN1c1nccc2cc(Nc3n[nH]c4cccnc34)ccc12 (stereo not given) | 0.306 µM | 57% | –
Cn1ccc2cc(Nc3n[nH]c4cccnc34)ccc2c1=O | > 10 µM | 30% | –
O=c1c2ccc(Nc3n[nH]c4cccnc34)cc2ccn1CC1CCC1 | 0.653 µM | 31% | –
c1cnc2c(Nc3ccc4ccncc4c3)n[nH]c2c1 | > 10 µM | – | –
Cn1nccc1-c1nccc2cc(Nc3n[nH]c4cccnc34)ccc12 | 0.045 µM | 78% | CLH [13]: 0.69 L/h/kg; Kp at 0.25 h [3]: 1.6; Fu [6]: 0.088 fraction; Fu [7]: 0.096 fraction
Cc1ccn(-c2nccc3cc(Nc4n[nH]c5cccnc45)ccc23)n1 | 0.237 µM | 84% | –
FC1(F)CCN(c2nccc3cc(Nc4n[nH]c5cccnc45)ccc23)C1 | 0.249 µM | 75% | –
c1cnc2c(Nc3ccc4c(N5CCCCC5)nccc4c3)n[nH]c2c1 | 0.215 µM | 74% | –
c1cnc2c(Nc3ccc4c(N5CCCC5)nccc4c3)n[nH]c2c1 | 1.69 µM | 54% | –
c1ccc2cc(Nc3n[nH]c4cccnc34)ccc2c1 | 0.403 µM | 79% | –
c1cnc2c(Nc3ccc4nccnc4c3)n[nH]c2c1 | > 10 µM | – | –
